# Molecular target: eel acetylcholinesterase (AChE) (Electrophorus electricus, UniProt O42275)
# Test: Eel AChE fluorescence assay (AMPLEX Red kit)
# Assay type: biochemical
# Details: eel AChE activity, at 20 μM; read-out: Percentage inhibition
# Description: Enzymatic reactions consisted of 50 μM acetylcholine, 200 μM AIVIPLEX™ Red reagent, 1 U/mL horseradish peroxidase, 0.1 U/mL choline oxidase and 0.096 U/mL acetylcholinesterase, with 30 1% DMSO. […] Control reactions lacking acetylcholinesterase but containing 5 μM H2O2 in presence of compounds were analyzed at the same wavelength to exclude compounds that display assay interference. Dose-response curves were performed in duplicate.
# Sequence of eel acetylcholinesterase (AChE) (O42275 24-633): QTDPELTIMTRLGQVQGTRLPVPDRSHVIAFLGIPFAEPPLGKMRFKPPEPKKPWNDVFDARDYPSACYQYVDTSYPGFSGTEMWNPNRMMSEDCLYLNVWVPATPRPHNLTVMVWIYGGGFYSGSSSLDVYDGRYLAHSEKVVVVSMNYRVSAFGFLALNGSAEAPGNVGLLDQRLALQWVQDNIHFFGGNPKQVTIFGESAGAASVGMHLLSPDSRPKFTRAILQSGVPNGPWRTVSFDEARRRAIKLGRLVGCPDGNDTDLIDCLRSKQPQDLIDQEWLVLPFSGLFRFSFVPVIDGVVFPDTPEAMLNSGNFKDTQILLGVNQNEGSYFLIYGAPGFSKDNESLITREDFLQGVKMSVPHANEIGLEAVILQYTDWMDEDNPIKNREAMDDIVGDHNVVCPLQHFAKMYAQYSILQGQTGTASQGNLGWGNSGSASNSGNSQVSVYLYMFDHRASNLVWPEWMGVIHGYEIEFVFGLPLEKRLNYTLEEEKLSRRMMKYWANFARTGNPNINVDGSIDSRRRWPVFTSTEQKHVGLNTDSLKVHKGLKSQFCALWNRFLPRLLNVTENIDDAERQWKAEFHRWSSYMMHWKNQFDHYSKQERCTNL
smiles,measurement,value
O=C1c2ccccc2-c2ccccc21 [fluorenone],inhibition at 20 µM,3%

# — patent publication US20230330045A1 (priority 2020, published 2023)
